In patent US10507201B2, “Use of ring-fused bicyclic pyridyl derivatives as FGFR4 inhibitors” (NOVARTIS AG, priority 2014, dated 2019) one finds IC50 data, which are given here for ten compounds.

Assay [1] concerns JHH7 hepatocellular carcinoma cells. Briefly: Methylene Blue Staining proliferation assay (MBS), JHH7. In kind it is cell-based. As for the experimental part:
(§1) The effect of compounds on cell proliferation is assessed using HuH-7 hepatocellular carcinoma cells obtained from the Japanese Collection of Research Bioresources Cell Bank (Cat#JCRB0403) and cultured in the vendor-recommended medium (DMEM high glucose (Amimed Cat#1-26F01-I), 10% foetal calf serum (Invitrogen Cat#16140-071), 1 mM sodium pyruvate (Amimed Cat#5-60F00-H), 1× Penicillin/Streptomycin (Amimed Cat#4-01F00-H)) at 37° C. in a humidified 5% CO2 incubator. Specifically, 5000 cells/well were seeded in 96-well tissue culture plates (TPP Cat#92696) in a total media volume of 100 μl/well and increasing compound dilutions or DMSO were added 24 hours thereafter in triplicates. 72 hours after compound addition, cells were fixed by adding 25 μL/well of 20% glutaraldehyde (Sigma Aldrich Cat#G400-4) and incubated for 10 minutes at room temperature. Cells were washed three times with H2O, 200 μL/well and stained with 100 μL/well 0.05% methylene blue (ABCR GmbH Cat#AB117904) for 10 minutes at room temperature. Cells were washed 3 times with H2O, 200 μL/well and then lysed by adding 200 μL/well of 3% HCl (Fluka Cat#84422) for 30 minutes at room temperature with shaking. Optical density was measured at A650 nm.
(§2) The effect of compounds on cell proliferation using Hep 3B2.1-7 hepatocellular carcinoma cells, FU97 gastric cancer cells, JHH7 hepatocellular carcinoma cells or JHH6 hepatocellular carcinoma cells is assessed as above. Hep 3B2.1-7, FU97, JHH7 or JHH6 are obtained from the Japanese Collection of Research Bioresources Cell Bank. Hep 3B2.1-7 cells are cultured in EMEM+10% FCS+1 mM Na pyruvate+2 mM L-glutamine and 2000 cells/well are seeded for the proliferation assay. FU97 cells are cultured in DMEM high glucose+10% FCS+1 mM Na pyruvate+4 mM L-glutamine+1×ITS and 2000 cells/well are seeded for the proliferation assay. JHH6 and JHH7 cells are cultured in William's E+10% FCS+2 mM L-glutamine and 3000 cells are seeded for the proliferation assay.

In assay [2] the test system is HuH-7 hepatocellular carcinoma cells. As to the kind of experiment: Methylene Blue Staining proliferation assay (MBS), HuH-7. As to conditions: Homo sapiens, HuH-7 cells, 72 hours after compound addition, read-out: HUH7 proliferation (nM) MBS. In kind it is cell-based. As for the experimental part: Methylene Blue Staining Proliferation Assay (MBS):
(§3) 72 hours after compound addition, cells were fixed by adding 25 μL/well of 20% glutaraldehyde (Sigma Aldrich Cat#G400-4) and incubated for 10 minutes at room temperature. Cells were washed three times with H2O, 200 μL/well and stained with 100 μL/well 0.05% methylene blue (ABCR GmbH Cat#AB117904) for 10 minutes at room temperature. […] Optical density was measured at A650 nm.

Assay [3] has the same test system. Briefly: CellTiter Glo (CTG) assay, HuH-7. As to conditions: Homo sapiens, Huh-7, 72 h, read-out: HUH7 proliferation (nM) CTG.
Description: CellTiter Glo (CTG) Assay:
Compound-mediated suppression of cell proliferation/viability is assessed by quantification of cellular ATP levels using the CellTiter-Glo (CTG) reagent (Promega, Cat#G7573). […] For data analysis, the assay background value determined in wells containing medium, but no cells, is subtracted from all data points. […] The effect of a particular test compound concentration on cell proliferation/viability is expressed as percentage of the background- and day 0-corrected luminescence reading obtained for cells treated with vehicle only (DMSO, 0.1% f.c.), which is set as 100%, whereas the luminescence reading for wells containing medium only, but no cells, is set as −100%. Compound concentrations leading to half-maximal growth inhibition (GI50) are determined using standard four parameter curve fitting (XLfit 5.2., IDBS, UK).
Assay [4] concerns FU97 gastric cancer cells. Briefly: Methylene Blue Staining proliferation assay (MBS), FU97. In kind it is cell-based. As for the experimental part: as §1, §2
For assay [5], the system named is Hep 3B2.1-7 hepatocellular carcinoma cells. Briefly: Methylene Blue Staining proliferation assay (MBS), Hep 3B2.1-7. As to conditions: Homo sapiens, Hep3B, Hep 3B2.1-7 cells. In kind it is cell-based. As for the experimental part:
as §3, §2

In turn, `N#Cc1ccc(NC(=O)N2CCCc3cc(CO)c(C=O)nc32)nc1` [Example 27, N-(5-cyanopyridin-2-yl)-7-formyl-6-(hydroxymethyl)-3,4-dihydro-1,8-naphthyridine-1(2H)-carboxamide] registered an IC50 in assay [1] of over 3000 nM.
For `COCCOc1cc(NC(=O)N2CCCc3cc(CO)c(C=O)nc32)ncc1C#N` [Example 39, N-(5-cyano-4-(2-methoxyethoxy)pyridin-2-yl)-7-formyl-6-(hydroxymethyl)-3,4-dihydro-1,8-naphthyridine-1(2H)-carboxamide], the IC50 was 123 nM in assay [2], 569 nM in assay [3] and over 3000 nM in assay [1].
In the case of `N#Cc1cnc(NC(=O)N2CCCc3cc(CO)c(C=O)nc32)cc1O[C@H]1CCOC1` [Example 50, (S)—N-(5-cyano-4-((tetrahydrofuran-3-yl)oxy)pyridin-2-yl)-7-formyl-6-(hydroxymethyl)-3,4-dihydro-1,8-naphthyridine-1(2H)-carboxamide], the IC50 in assay [2] came out at 270 nM; in assay [4], 234 nM; in assay [1], 484 nM.
On to `COCCOc1cc(NC(=O)N2CCCc3cc(C(F)F)c(C=O)nc32)ncc1C#N` [Example 63, N-(5-cyano-4-(2-methoxyethoxy)pyridin-2-yl)-6-(difluoromethyl)-7-formyl-3,4-dihydro-1,8-naphthyridine-1(2H)-carboxamide], for which, in assay [1], the IC50 is over 3000 nM.
With `CC(=O)N(C)Cc1cc2c(nc1C=O)N(C(=O)Nc1ccc(C#N)cn1)CCC2` [Example 68, N-(5-cyanopyridin-2-yl)-7-formyl-6-((N-methylacetamido)methyl)-3,4-dihydro-1,8-naphthyridine-1(2H)-carboxamide], the IC50 in assay [5] and in assay [1] was over 3000 nM throughout.
As for `COCCNc1cc(NC(=O)N2CCCc3cc(CO)c(C=O)nc32)ncc1C#N` [Example 80, N-(5-cyano-4-((2-methoxyethyl)amino)pyridin-2-yl)-7-formyl-6-(hydroxymethyl)-3,4-dihydro-1,8-naphthyridine-1(2H)-carboxamide], the results for the IC50 in assay [4], in assay [3] and in assay [1] were 96 nM, 168 nM and 150 nM, respectively.
With `COCCNc1cc(NC(=O)N2CCCc3cc(CN4CCN(C)CC4=O)c(C=O)nc32)ncc1C#N` [Example 83, N-(5-cyano-4-((2-methoxyethyl)amino)pyridin-2-yl)-7-formyl-6-((4-methyl-2-oxopiperazin-1-yl)methyl)-3,4-dihydro-1,8-naphthyridine-1(2H)-carboxamide], the IC50 in assay [5] came to 1 nM; in assay [2], 12 nM; in assay [4], 23 nM; in assay [3], 60.9 nM; in assay [1] it was 9 nM.
Consider `CC(C)Oc1cc(NC(=O)N2CCCc3cc(CN4CCN(C)CC4=O)c(C=O)nc32)ncc1C#N` [Example 92, N-(5-cyano-4-isopropoxypyridin-2-yl)-7-formyl-6-((4-methyl-2-oxopiperazin-1-yl)methyl)-3,4-dihydro-1,8-naphthyridine-1(2H)-carboxamide], for which the IC50 in assay [3] was 38 nM.
As for `COCCOc1cc(NC(=O)N2CCCc3cc(CN4CCN(C)CC4=O)c(C=O)nc32)ncc1C#N` [Example 101, N-(5-cyano-4-(2-methoxyethoxy)pyridin-2-yl)-7-formyl-6-((4-methyl-2-oxopiperazin-1-yl)methyl)-3,4-dihydro-1,8-naphthyridine-1(2H)-carboxamide], the IC50 in assay [2] was found to be 82 nM; in assay [3] it was 142 nM.
With `COC[C@@H](C)Oc1cc(NC(=O)N2CCCc3cc(CN4CCN(C)CC4=O)c(C=O)nc32)ncc1C#N` [Example 205, (R)—N-(5-cyano-4-((1-methoxypropan-2-yl)oxy)pyridin-2-yl)-7-formyl-6-((4-methyl-2-oxopiperazin-1-yl)methyl)-3,4-dihydro-1,8-naphthyridine-1(2H)-carboxamide], the IC50 in assay [5] amounted to 5 nM; in assay [3] it was 17.8 nM.
